PubChem BioAssay AID328 (DTP/NCI, 2004)
Where “and” joins values, the source holds several entries; their conditions need not be identical. Equal entries are not always repeated. Inconclusive results and toxic doses are left out.

Test system: BDF1 mice, P388 leukemia ip, median survival T/C
Experiment: NCI In Vivo Anticancer Drug Screen. Data for tumor model P388 Leukemia (intraperitoneal) in B6D2F1 (BDF1) mice
Details: endpoint: median survival time, higher = longer survival
In short: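 Antitumour effect was judged in vivo: survival in drug-treated mice, normalised to that of vehicle-dosed controls, gives the reported T/C.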

[1] = dose: 50.0 mg/kg/injection, schedule: Q01DX009 (ip), vehicle: saline with Tween-80
[2] = dose: 100.0 mg/kg/injection, schedule: Q04DX003 (ip), vehicle: saline with Tween-80
[3] = dose: 200.0 mg/kg/injection, schedule: Q04DX003 (ip), vehicle: saline with Tween-80
[4] = dose: 100.0 mg/kg/injection, schedule: Q01DX009 (ip), vehicle: Klucel (hydroxypropylcellulose) (HPC)
[5] = dose: 200.0 mg/kg/injection, schedule: Q01DX009 (ip), vehicle: Klucel (hydroxypropylcellulose) (HPC)
[6] = dose: 200.0 mg/kg/injection, schedule: Q04DX003 (ip), vehicle: Klucel (hydroxypropylcellulose) (HPC)

CN(C)c1cc(=O)c2c(ccc3ccccc32)o1
T/C (dose: 6.25 mg/kg/injection, schedule: Q01DX009 (ip), vehicle: saline with Tween-80): 117 % of control
T/C (dose: 12.5 mg/kg/injection, schedule: Q01DX009 (ip), vehicle: saline with Tween-80): 97 % of control
T/C (dose: 25.0 mg/kg/injection, schedule: Q01DX009 (ip), vehicle: saline with Tween-80): 106 % of control
T/C [1]: 106 % of control

c1cnc2sccc2c1
T/C [2]: 100 % of control
T/C [3]: 109 % of control

N#CN=CN1CC=C(c2ccc(Cl)cc2)CC1
T/C [1]: 98 % of control
T/C (dose: 100.0 mg/kg/injection, schedule: Q01DX009 (ip), vehicle: saline with Tween-80): 93 % of control
T/C (dose: 200.0 mg/kg/injection, schedule: Q01DX009 (ip), vehicle: saline with Tween-80): 94 % of control

N#Cc1nc2c(nc1C#N)-c1ccccc1C2=O
T/C (dose: 6.0 mg/kg/injection, schedule: Q01DX009 (ip), vehicle: Klucel (hydroxypropylcellulose) (HPC)): 100 % of control
T/C (dose: 6.25 mg/kg/injection, schedule: Q04DX003 (ip), vehicle: Klucel (hydroxypropylcellulose) (HPC)): 100 % of control
T/C (dose: 12.0 mg/kg/injection, schedule: Q01DX009 (ip), vehicle: Klucel (hydroxypropylcellulose) (HPC)): 107 % of control
T/C (dose: 12.5 mg/kg/injection, schedule: Q04DX003 (ip), vehicle: Klucel (hydroxypropylcellulose) (HPC)): 108 % of control
T/C (dose: 25.0 mg/kg/injection, schedule: Q04DX003 (ip), vehicle: Klucel (hydroxypropylcellulose) (HPC)): 104 % of control

CCOC(=O)C1C(=O)C2CCc3c(ccc4ccccc34)N2C1=O (stereo not drawn)
T/C (dose: 50.0 mg/kg/injection, schedule: Q01DX009 (ip), vehicle: Klucel (hydroxypropylcellulose) (HPC)): 100 % of control
T/C (dose: 50.0 mg/kg/injection, schedule: Q04DX003 (ip), vehicle: Klucel (hydroxypropylcellulose) (HPC)): 95 % of control
T/C [4]: 110 % of control
T/C (dose: 100.0 mg/kg/injection, schedule: Q04DX003 (ip), vehicle: Klucel (hydroxypropylcellulose) (HPC)): 95 % of control
T/C [5]: 100 % of control
T/C [6]: 100 % of control

Cc1ccc2c(ccc(/C=C/c3ccc(O)c4ncccc34)[n+]2C)c1
T/C (dose: 75.0 mg/kg/injection, schedule: Q01DX009 (ip), vehicle: Klucel (hydroxypropylcellulose) (HPC)): 104 % of control

NC1C=CC(CCC(N)C(=O)O)C=C1 (stereo not drawn)
T/C (dose: 12.5 mg/kg/injection, schedule: Q01DX009 (ip), vehicle: saline): 100 % of control
T/C (dose: 25.0 mg/kg/injection, schedule: Q01DX009 (ip), vehicle: saline): 100 % of control and 105 % of control
T/C (dose: 50.0 mg/kg/injection, schedule: Q01DX009 (ip), vehicle: saline): 100 % of control
T/C (dose: 100.0 mg/kg/injection, schedule: Q01DX009 (ip), vehicle: saline): 110 % of control

Cc1cc(N(CCCl)CCCl)ccc1/C=N\Nc1nncn1N
T/C (dose: 35.0 mg/kg/injection, schedule: Q01DX007 (ip), vehicle: Klucel (hydroxypropylcellulose) (HPC)): 157 % of control
T/C (dose: 45.0 mg/kg/injection, schedule: Q04DX003 (ip), vehicle: Klucel (hydroxypropylcellulose) (HPC)): 120 % of control
T/C (dose: 50.0 mg/kg/injection, schedule: Q01DX007 (ip), vehicle: Klucel (hydroxypropylcellulose) (HPC)): 175 % of control
T/C (dose: 75.0 mg/kg/injection, schedule: Q01DX007 (ip), vehicle: Klucel (hydroxypropylcellulose) (HPC)): 211 % of control
T/C [4]: 118 % of control
T/C (dose: 132.0 mg/kg/injection, schedule: Q04DX003 (ip), vehicle: Klucel (hydroxypropylcellulose) (HPC)): 213 % of control
T/C (dose: 132.0 mg/kg/injection, schedule: Q04DX003 (ip), vehicle: saline): 163 % of control
T/C [5]: 90 % of control
T/C [6]: 218 % of control
T/C (dose: 300.0 mg/kg/injection, schedule: Q04DX003 (ip), vehicle: Klucel (hydroxypropylcellulose) (HPC)): 122 % of control
T/C (dose: 300.0 mg/kg/injection, schedule: Q04DX003 (ip), vehicle: saline): 90 % of control

C=C(Br)COCC
T/C (dose: 5.78 mg/kg/injection, schedule: Q01DX001 (ip), vehicle: saline): 95 % of control
T/C (dose: 11.56 mg/kg/injection, schedule: Q01DX001 (ip), vehicle: saline): 113 % of control
T/C (dose: 13.75 mg/kg/injection, schedule: Q04DX003 (ip), vehicle: saline): 95 % of control
T/C (dose: 23.12 mg/kg/injection, schedule: Q01DX001 (ip), vehicle: saline): 104 % of control
T/C (dose: 27.5 mg/kg/injection, schedule: Q04DX003 (ip), vehicle: saline): 109 % of control
T/C (dose: 35.0 mg/kg/injection, schedule: Q01DX009 (ip), vehicle: saline): 100 % of control
T/C (dose: 46.25 mg/kg/injection, schedule: Q01DX001 (ip), vehicle: saline): 100 % of control
T/C (dose: 55.0 mg/kg/injection, schedule: Q01DX009 (ip), vehicle: saline): 109 % of control
T/C (dose: 55.0 mg/kg/injection, schedule: Q04DX003 (ip), vehicle: saline): 90 % of control
T/C (dose: 80.0 mg/kg/injection, schedule: Q04DX003 (ip), vehicle: saline): 110 % of control
T/C (dose: 92.5 mg/kg/injection, schedule: Q01DX001 (ip), vehicle: saline): 113 % of control
T/C (dose: 125.0 mg/kg/injection, schedule: Q04DX003 (ip), vehicle: saline): 100 % of control
T/C (dose: 185.0 mg/kg/injection, schedule: Q04DX003 (ip), vehicle: saline): 100 % of control

O=c1cc(Cl)[nH]c(=O)[nH]1
T/C (dose: 50.0 mg/kg/injection, schedule: Q04DX003 (ip), vehicle: saline with Tween-80): 97 % of control
T/C [2]: 114 % of control
T/C [3]: 97 % of control
T/C (dose: 400.0 mg/kg/injection, schedule: Q04DX003 (ip), vehicle: saline with Tween-80): 97 % of control
